Laboratory results reported in patent US20070082928A1, “Method for treating anxiety disorders, substance abuse/dependence, binge-eating disorders, insomnia and drug-induced flashbacks” (priority 2005, published 2007).

Key:
Assay type in all cases: in vivo, human
[1] = system: Person with GAD anxiety symptoms; assay: Case history 3: donepezil in a patient with GAD anxiety symptoms persisting after MDD
From the text: A person complained about insomnia, restlessness, tension, headaches, gastric symptoms, upset stomach, dizziness, fatigue, loss of appetite, and libido deficit. A person has been married for 13 years. Their spouse is a person working as an assistant director. The couple was well functioning, with two children, a child and a child in good health. A person was in good physical health and had no significant medical antecedent. A person had no previous psychiatric antecedent, nor any family history of mental disorders. […] […] a person is the youngest of 14 brothers and sisters.
A person was hospitalized in the Department of Psychiatry at Saint-Antoine Hospital and treated for MDD with venlafaxine from July 15 to Aug. […] Their anxiety consisted of excessive worrying, restlessness, tension, fatigue, loss of concentration, irritability, severe muscle tension and difficulty falling asleep. These symptoms met the GAD DSM IV criteria and persisted during the depressive episode and also when they no longer met the criteria for MDD. […] 9, 2005 to treat their anxiety symptoms. […] On Sep.

[2] = system: Person with post-traumatic stress disorder (PTSD); assay: Case History 1: donepezil in a rape victim with PTSD after suspected GHB intake
From the text: A person had been living in NYC for their work since January 2005. On Jun. 15, 2005, they met some friends after dinner and went dancing with them. They experienced a strange sensation late in the evening after drinking a glass of champagne. They remembered feeling drowsy and confused. They had to stop dancing because of a severe sedation and took a taxi. A […] they didn't know until now accompanied them to their apartment, which was unusual for them.
They didn't remember anything about the taxi drive and their trip back home. They remembered being with an unknown person and strangely being led down on their couch in their living room and looking at them.
Thereafter they repeatedly saw themself waking up in the morning and looking at their bed where they had discovered a preservative, a proof that a sexual behaviour had occurred between 2 and 6 am.
They experienced terrifying nightmares and repetitive uncontrolled behaviour consisting of looking at […] waking up alone with a desperate feeling of being sexually abused and of loneliness. […] About the evening and the rape they remembered only their inability to move, refusing sexual advances of the unknown person, and feeling uncomfortable because of their unusual behaviour.
On Jun. 20, 2005, they consulted in the Department of Psychiatry at Saint-Antoine Hospital in Paris. […] A legal procedure was initiated in NYC before coming back to Paris. […] A toxicological analysis was performed using hair sample for detection of the suspected drug GHB.
During the initial interview, they were unable to give any detail about the evening and the night of the rape. A person requested a method to decrease their anxiety symptoms, insomnia and nightmares associated with the traumatic event. After a discussion about the case, it was decided on Jun.

[3] = system: Person with Generalized Anxiety (GAD), PTSD and cannabis dependence; assay: Case History 2: donepezil in a patient with GAD, PTSD, cannabis dependence, alcohol dependence and binge-eating disorder
From the text: a person has no other psychiatric antecedent.
Despite them on-going biweekly psychotherapy, they continued to abuse cannabis at about 2 to 3 joints a day.

[4] = 5 mg once a day, after one week, on ongoing venlafaxine
[5] = two weeks after increase to 5 mg b.i.d.
[6] = 5 mg once a day, after one week
[7] = 5 mg once a day, patient report

COc1cc2c(cc1OC)C(=O)C(CC1CCN(Cc3ccccc3)CC1)C2.Cl (racemic) [donepezil, (±)-2,3-dihydro-5,6-dimethoxy-2-[[1-(phenylmethyl)-4-piperidinyl]methyl]-1H-inden-1-one hydrochloride]
anti-anxiety effect [1, 4]: definite anti-anxiety effect
side effects [1, 4]: No side effects were observed
anxiety symptoms / return to work ([1]; 6 days after increase to 5 mg b.i.d.): able to return to work without any anxious symptoms
recall of details of the traumatic event ([2]; 5 mg once a day, after 7 days): some of the details of the post-traumatic event
sleep and nightmares ([2]; 5 mg once a day, after 7 days): slept better without nightmares
anxiety ([2]; 5 mg once a day, after one week of treatment): began to feel less anxious
anxiety and tension [2, 5]: no more anxious nor tense
sleep [2, 5]: returned to normal without nightmares
alcohol intake ([3]; 5 mg once a day): significantly produced a decrease
verbal fluency and cognitive performances ([3]; 5 mg once a day): did not improve
binge-eating disorder [3, 6]: completely disappeared
nightmares [3, 6]: completely disappeared
craving for caffeine, nicotine, cannabis and binge-eating ([3]; 5 mg once a day, follow-up): significantly improved to the extent of disappearing
GAD anxiety symptoms (nervousness, muscle tension, restlessness, anxiety, worry, insomnia, and tremor) ([3]; 5 mg once a day, follow-up August 30 and Sept. 2, 2005): much improved
euphoria [3, 7]: no longer euphoric
judgement [3, 7]: significantly improved
motor coordination [3, 7]: improved
sensations of slowed time [3, 7]: no more sensations of slowed time
social withdrawal [3, 7]: no longer socially withdrawn
cannabis smoking ([3]; 5 mg once a day, before: 2 to 3 joints a day): completely stop cannabis smoking without any withdrawal symptoms, nor craving symptoms
effect of dose increase (nightmares related to drug withdrawal) ([3]; increased to 5 mg b.i.d.): further improvement with disappearance of nightmares

CN1CCN2c3ncccc3Cc3ccccc3C2C1 (stereo not drawn) [mirtazapine]
depressive symptoms (MDD) ([3]; 15 mg h.s. with biweekly psychotherapy, after 2 months of treatment): complete recovery

COc1ccc(C(CN(C)C)C2(O)CCCCC2)cc1 (stereo not drawn) [venlafaxine]
anxiety symptoms ([1]; ongoing venlafaxine 100 mg t.i.d.): did not respond
depression (MDD) ([1]; treated from July 15 to Aug. 8, 2005, in hospital): recovered completely
